Measurements taken from patent US12699067B2, “Electrochemical biosensor and the manufacturing method thereof” (China Medical University, priority 2023, dated 2026).

Test system: human non-small cell lung cancer cell line (A549 cell line)
Assay: Detection of heat shock protein (Hsp70) released from paclitaxel-treated A549 cells with the Hsp70 electrochemical immunosensor
Assay type: cell-based
Conditions: A549 cell line treated with 0, 75, 100 μM Paclitaxel; culture solution as control; FIG. 12
Excerpt: It was known that the expression of heat shock protein (Hsp70) was highly correlated with the growth of cancer cells. The present invention further uses Hsp70 electrochemical immunosensor (BSA/antiHsp70/EN-LC/Au@MnO2/MoO3) to detect heat shock protein (Hsp70) in human non-small cell lung cancer cell line (A549 cell line).
Therefore, the Hsp70 electrochemical immunosensor provided by the present invention could be used for detecting heat shock protein (Hsp70).

CC(=O)O[C@H]1C(=O)[C@@]2(C)[C@H]([C@H](OC(=O)c3ccccc3)[C@]3(O)C[C@H](OC(=O)[C@H](O)[C@@H](NC(=O)c4ccccc4)c4ccccc4)C(C)=C1C3(C)C)[C@]1(OC(C)=O)CO[C@@H]1C[C@@H]2O [paclitaxel, Paclitaxel]
curve (the radius) of Hsp70 electrochemical immunosensor, indicating bound heat shock protein (Hsp70) released by the cells: increased
